Measurements from patent publication US20250353891A1 (MEDIMMUNE LIMITED, priority 2022, published 2025).
Where two headings read alike, the source gives them in different places. Starred links: 1 amine or outer side, 2 acyl side, 3 side chain; linkers in the order of their positions; H or OH if unused. Non-standard residues stand in square brackets, D forms with d. Residues, ends and D or L forms follow the SMILES beside them. Groups on a side chain read outwards from the residue. *: point of attachment. C20 diacid = O=C(O)CCCCCCCCCCCCCCCCCCC(=O)*; C18 diacid = O=C(O)CCCCCCCCCCCCCCCCC(=O)*; γGlu = O=C(O)[C@H](CCC(=O)[*:2])N[*:1]; αMeF = C[C@](N)(Cc1ccccc1)C(=O)O; AEEA = NCCOCCOCC(=O)O; Aib = CC(C)(N)C(=O)O

Tests used:
[1] = target: human glucagon receptor (hGCGR) (Homo sapiens, UniProt P47871); assay: cAMP production (HTRF) in CHO cells expressing hGCGR; assay type: cell-based; set-up: expressed in transfected cells; details: cAMP in CHO hGCGR cells, geometric mean, read-out: hGluc-R EC50
Sequence of human glucagon receptor (hGCGR) (P47871 26-477): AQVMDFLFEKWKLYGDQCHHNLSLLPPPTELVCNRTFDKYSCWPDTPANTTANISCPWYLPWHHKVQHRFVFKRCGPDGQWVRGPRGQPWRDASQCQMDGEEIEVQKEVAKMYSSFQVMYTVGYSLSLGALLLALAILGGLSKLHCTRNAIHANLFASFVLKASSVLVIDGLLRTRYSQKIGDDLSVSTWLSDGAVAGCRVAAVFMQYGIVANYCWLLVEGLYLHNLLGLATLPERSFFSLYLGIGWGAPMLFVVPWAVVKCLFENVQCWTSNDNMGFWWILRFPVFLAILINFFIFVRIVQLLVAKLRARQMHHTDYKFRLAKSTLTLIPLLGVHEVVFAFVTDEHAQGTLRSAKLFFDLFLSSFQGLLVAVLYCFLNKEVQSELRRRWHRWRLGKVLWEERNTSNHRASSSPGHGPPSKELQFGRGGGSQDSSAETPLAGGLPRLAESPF
Procedure, shortened: (§1)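 Potency values represent EC50 from 4-parameter logistic curves of HTRF % Delta F signal. Receptor-expressing CHO cells (hGCGR 2×10^5 cells/mL, hGLP-1R 1×10^5 cells/mL) were exposed for 30 min at room temperature before two-step cAMP detection.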

[2] = target: human GLP-1 receptor (hGLP-1R) (Homo sapiens, UniProt P43220); assay: cAMP production (HTRF) in CHO cells expressing hGLP-1R; assay type: cell-based; set-up: expressed in transfected cells; details: for EC50: cAMP in CHO hGLP-1R cells, geometric mean, read-out: hGLP-1R EC50; for % Relative Potency Ratio: % GLP-1R activity relative to GLP-1 / % GlucR activity relative to glucagon
Sequence of human GLP-1 receptor (hGLP-1R) (P43220 24-463): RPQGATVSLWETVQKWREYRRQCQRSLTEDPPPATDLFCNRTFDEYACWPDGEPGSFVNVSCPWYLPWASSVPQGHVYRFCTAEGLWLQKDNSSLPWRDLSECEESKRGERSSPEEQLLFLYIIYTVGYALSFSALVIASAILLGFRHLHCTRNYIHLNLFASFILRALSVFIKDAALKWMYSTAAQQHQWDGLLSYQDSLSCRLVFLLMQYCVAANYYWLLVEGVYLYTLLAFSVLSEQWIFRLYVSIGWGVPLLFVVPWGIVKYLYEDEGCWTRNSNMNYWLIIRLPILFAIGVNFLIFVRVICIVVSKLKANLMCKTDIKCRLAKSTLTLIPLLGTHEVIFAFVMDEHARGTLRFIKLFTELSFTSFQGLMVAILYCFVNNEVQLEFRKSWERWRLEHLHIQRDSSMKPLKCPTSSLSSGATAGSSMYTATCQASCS
Procedure, shortened: as §1

[3] = Table 6, peptides modified at position 17
[4] = Table 7, peptides modified at position 20

Row | EC50 [1, 3] [nM] | EC50 [2, 3] [nM] | % Relative Potency Ratio ([2]; Table 6) | EC50 [1, 4] [nM] | EC50 [2, 4] [nM] | % Relative Potency Ratio ([2]; Table 7) | SMILES
1 | 2.66 | 0.297 | 17.7 | – | – | – | CC(C)C[C@H](NC(=O)[C@H](Cc1c[nH]c2ccccc12)NC(=O)[C@H](CCC(N)=O)NC(=O)[C@@H](NC(=O)[C@H](Cc1ccccc1)NC(=O)[C@H](CC(=O)O)NC(=O)[C@H](CCCNC(=N)N)NC(=O)[C@H](C)NC(=O)[C@H](C)NC(=O)[C@H](CCCCNC(=O)COCCOCCNC(=O)COCCOCCNC(=O)CC[C@H](NC(=O)CCCCCCCCCCCCCCCCCCC(=O)O)C(=O)O)NC(=O)[C@@H](NC(=O)[C@H](CC(=O)O)NC(=O)[C@H](CC(C)C)NC(=O)[C@](C)(Cc1ccccc1)NC(=O)[C@H](CCCCN)NC(=O)[C@H](CO)NC(=O)[C@@H](NC(=O)[C@H](CC(=O)O)NC(=O)[C@H](CO)NC(=O)[C@@H](NC(=O)[C@H](Cc1ccccc1)NC(=O)[C@@H](NC(=O)CNC(=O)[C@H](CCC(N)=O)NC(=O)C(C)(C)NC(=O)[C@@H](N)Cc1c[nH]cn1)[C@@H](C)O)[C@@H](C)O)C(C)C)[C@@H](C)O)C(C)C)C(=O)N[C@@H](CC(C)C)C(=O)N[C@@H](CCC(=O)O)C(=O)NC(C)(C)C(=O)NCC(N)=O [Peptide 515] (H-H[Aib]QGTFTSDVSK[αMeF]LDTK([AEEA-AEEA-γGlu-C20 diacid])AARDFVQWLLE[Aib]G-NH2; N-terminus assumed)
2 | 0.785 | 0.137 | 11.3 | – | – | – | CC(C)C[C@H](NC(=O)[C@H](CC(C)C)NC(=O)[C@H](Cc1c[nH]c2ccccc12)NC(=O)[C@H](CCCNC(=N)N)NC(=O)[C@@H](NC(=O)[C@H](Cc1ccccc1)NC(=O)[C@H](CC(=O)O)NC(=O)[C@H](CCC(N)=O)NC(=O)[C@H](C)NC(=O)[C@H](CCCNC(=N)N)NC(=O)[C@H](CCCCNC(=O)COCCOCCNC(=O)COCCOCCNC(=O)CC[C@H](NC(=O)CCCCCCCCCCCCCCCCCCC(=O)O)C(=O)O)NC(=O)[C@H](CO)NC(=O)[C@H](CCC(=O)O)NC(=O)[C@H](CC(C)C)NC(=O)[C@](C)(Cc1ccccc1)NC(=O)[C@H](CCCCN)NC(=O)[C@H](CO)NC(=O)[C@@H](NC(=O)[C@H](CC(=O)O)NC(=O)[C@H](CO)NC(=O)[C@@H](NC(=O)[C@H](Cc1ccccc1)NC(=O)[C@@H](NC(=O)CNC(=O)[C@H](CCC(N)=O)NC(=O)C(C)(C)NC(=O)[C@@H](N)Cc1c[nH]cn1)[C@@H](C)O)[C@@H](C)O)C(C)C)C(C)C)C(=O)N[C@@H](C)C(=O)NC(C)(C)C(=O)NCC(N)=O [Peptide 516] (H-H[Aib]QGTFTSDVSK[αMeF]LESK([AEEA-AEEA-γGlu-C20 diacid])RAQDFVRWLLA[Aib]G-NH2; N-terminus assumed)
3 | 0.738 | 0.146 | 10.0 | – | – | – | CC[C@H](C)[C@H](NC(=O)[C@H](Cc1ccccc1)NC(=O)[C@H](CCC(=O)O)NC(=O)[C@H](CCCNC(=N)N)NC(=O)[C@H](C)NC(=O)[C@H](C)NC(=O)[C@H](CCCCNC(=O)COCCOCCNC(=O)COCCOCCNC(=O)CC[C@H](NC(=O)CC[C@H](NC(=O)CCCCCCCCCCCCCCCCC(=O)O)C(=O)O)C(=O)O)NC(=O)[C@H](C)NC(=O)[C@H](CCC(=O)O)NC(=O)[C@H](CC(C)C)NC(=O)[C@](C)(Cc1ccccc1)NC(=O)[C@H](CCCCN)NC(=O)[C@H](CO)NC(=O)[C@@H](NC(=O)[C@H](CC(=O)O)NC(=O)[C@H](CO)NC(=O)[C@@H](NC(=O)[C@H](Cc1ccccc1)NC(=O)[C@@H](NC(=O)CNC(=O)[C@H](CCC(N)=O)NC(=O)C(C)(C)NC(=O)[C@@H](N)Cc1c[nH]cn1)[C@@H](C)O)[C@@H](C)O)C(C)C)C(=O)N[C@@H](C)C(=O)N[C@@H](Cc1c[nH]c2ccccc12)C(=O)N[C@@H](CC(C)C)C(=O)N[C@@H](CC(C)C)C(=O)N[C@@H](CCC(=O)O)C(=O)N[C@H](C(N)=O)[C@@H](C)O [Peptide 517] (H-H[Aib]QGTFTSDVSK[αMeF]LEAK([AEEA-AEEA-γGlu-γGlu-C18 diacid])AAREFIAWLLET-NH2)
4 | 0.0773 | 0.031 | 4.9 | – | – | – | CC(C)C[C@H](NC(=O)[C@H](Cc1c[nH]c2ccccc12)NC(=O)[C@H](CCC(N)=O)NC(=O)[C@@H](NC(=O)[C@H](Cc1ccccc1)NC(=O)[C@H](CC(=O)O)NC(=O)[C@H](CCCNC(=N)N)NC(=O)[C@H](C)NC(=O)[C@H](CCCNC(=N)N)NC(=O)[C@H](CCCCNC(=O)COCCOCCNC(=O)COCCOCCNC(=O)CC[C@H](NC(=O)CC[C@H](NC(=O)CCCCCCCCCCCCCCCCC(=O)O)C(=O)O)C(=O)O)NC(=O)[C@@H](NC(=O)[C@H](CC(=O)O)NC(=O)[C@H](CC(C)C)NC(=O)[C@](C)(Cc1ccccc1)NC(=O)[C@H](CCCCN)NC(=O)[C@H](CO)NC(=O)[C@@H](NC(=O)[C@H](CC(=O)O)NC(=O)[C@H](CO)NC(=O)[C@@H](NC(=O)[C@H](Cc1ccccc1)NC(=O)[C@@H](NC(=O)CNC(=O)[C@H](CCC(N)=O)NC(=O)C(C)(C)NC(=O)[C@@H](N)Cc1c[nH]cn1)[C@@H](C)O)[C@@H](C)O)C(C)C)[C@@H](C)O)C(C)C)C(=O)N[C@@H](CC(C)C)C(=O)N[C@@H](CCC(=O)O)C(=O)NC(C)(C)C(=O)NCC(=O)O [Peptide 518]
5 | 0.386 | 0.172 | 4.4 | – | – | – | CC(C)C[C@H](NC(=O)[C@H](Cc1c[nH]c2ccccc12)NC(=O)[C@H](CCC(N)=O)NC(=O)[C@@H](NC(=O)[C@H](Cc1ccccc1)NC(=O)[C@H](CC(=O)O)NC(=O)[C@H](CCCNC(=N)N)NC(=O)[C@H](C)NC(=O)[C@H](CCCNC(=N)N)NC(=O)[C@H](CCCCNC(=O)CC[C@H](NC(=O)CC[C@H](NC(=O)COCCOCCNC(=O)COCCOCCNC(=O)CC[C@H](NC(=O)CC[C@H](NC(=O)CCCCCCCCCCCCCCCCC(=O)O)C(=O)O)C(=O)O)C(=O)O)C(=O)O)NC(=O)[C@@H](NC(=O)[C@H](CC(=O)O)NC(=O)[C@H](CC(C)C)NC(=O)[C@](C)(Cc1ccccc1)NC(=O)[C@H](CCCCN)NC(=O)[C@H](CO)NC(=O)[C@@H](NC(=O)[C@H](CC(=O)O)NC(=O)[C@H](CO)NC(=O)[C@@H](NC(=O)[C@H](Cc1ccccc1)NC(=O)[C@@H](NC(=O)CNC(=O)[C@H](CCC(N)=O)NC(=O)C(C)(C)NC(=O)[C@@H](N)Cc1c[nH]cn1)[C@@H](C)O)[C@@H](C)O)C(C)C)[C@@H](C)O)C(C)C)C(=O)N[C@@H](CC(C)C)C(=O)N[C@@H](CCC(=O)O)C(=O)NC(C)(C)C(=O)NCC(=O)O [Peptide 519]
6 | 1.62 | 0.543 | 5.9 | – | – | – | CC(C)C[C@H](NC(=O)[C@H](Cc1c[nH]c2ccccc12)NC(=O)[C@H](CCC(N)=O)NC(=O)[C@@H](NC(=O)[C@H](Cc1ccccc1)NC(=O)[C@H](CC(=O)O)NC(=O)[C@H](CCCNC(=N)N)NC(=O)[C@H](C)NC(=O)[C@H](CCCNC(=N)N)NC(=O)[C@H](CCCCNC(=O)CC[C@H](NC(=O)CC[C@H](NC(=O)COCCOCCNC(=O)COCCOCCNC(=O)CC[C@H](NC(=O)CC[C@H](NC(=O)CCCCCCCCCCCCCCCCCCC(=O)O)C(=O)O)C(=O)O)C(=O)O)C(=O)O)NC(=O)[C@@H](NC(=O)[C@H](CC(=O)O)NC(=O)[C@H](CC(C)C)NC(=O)[C@](C)(Cc1ccccc1)NC(=O)[C@H](CCCCN)NC(=O)[C@H](CO)NC(=O)[C@@H](NC(=O)[C@H](CC(=O)O)NC(=O)[C@H](CO)NC(=O)[C@@H](NC(=O)[C@H](Cc1ccccc1)NC(=O)[C@@H](NC(=O)CNC(=O)[C@H](CCC(N)=O)NC(=O)C(C)(C)NC(=O)[C@@H](N)Cc1c[nH]cn1)[C@@H](C)O)[C@@H](C)O)C(C)C)[C@@H](C)O)C(C)C)C(=O)N[C@@H](CC(C)C)C(=O)N[C@@H](CCC(=O)O)C(=O)NC(C)(C)C(=O)NCC(=O)O [Peptide 520]
7 | – | – | – | 10.1 | 0.677 | 29.5 | CC(C)C[C@H](NC(=O)[C@H](Cc1c[nH]c2ccccc12)NC(=O)[C@H](CCC(N)=O)NC(=O)[C@@H](NC(=O)[C@H](Cc1ccccc1)NC(=O)[C@H](CC(=O)O)NC(=O)[C@H](CCCCNC(=O)COCCOCCNC(=O)COCCOCCNC(=O)CC[C@H](NC(=O)CCCCCCCCCCCCCCCCC(=O)O)C(=O)O)NC(=O)[C@H](C)NC(=O)[C@H](CCCNC(=N)N)NC(=O)[C@H](CCC(=O)O)NC(=O)[C@H](CO)NC(=O)[C@H](CC(=O)O)NC(=O)[C@H](CC(C)C)NC(=O)[C@](C)(Cc1ccccc1)NC(=O)[C@H](CCCCN)NC(=O)[C@H](CO)NC(=O)[C@@H](NC(=O)[C@H](CC(=O)O)NC(=O)[C@H](CO)NC(=O)[C@@H](NC(=O)[C@H](Cc1ccccc1)NC(=O)[C@@H](NC(=O)CNC(=O)[C@H](CCC(N)=O)NC(=O)C(C)(C)NC(=O)[C@@H](N)Cc1c[nH]cn1)[C@@H](C)O)[C@@H](C)O)C(C)C)C(C)C)C(=O)N[C@@H](CCC(=O)O)C(=O)N[C@@H](C)C(=O)NCC(=O)NCC(=O)O [Peptide 521]
8 | – | – | – | 6.36 | 0.508 | 24.8 | CC(C)C[C@H](NC(=O)[C@H](Cc1c[nH]c2ccccc12)NC(=O)[C@H](C)NC(=O)[C@@H](NC(=O)[C@H](Cc1ccccc1)NC(=O)[C@H](CC(=O)O)NC(=O)[C@H](CCCCNC(=O)COCCOCCNC(=O)COCCOCCNC(=O)CC[C@H](NC(=O)CCCCCCCCCCCCCCCCC(=O)O)C(=O)O)NC(=O)[C@H](C)NC(=O)[C@H](CCCNC(=N)N)NC(=O)[C@H](CCC(=O)O)NC(=O)[C@H](CO)NC(=O)[C@H](CC(=O)O)NC(=O)[C@H](CC(C)C)NC(=O)[C@](C)(Cc1ccccc1)NC(=O)[C@H](CCCCN)NC(=O)[C@H](CO)NC(=O)[C@@H](NC(=O)[C@H](CC(=O)O)NC(=O)[C@H](CO)NC(=O)[C@@H](NC(=O)[C@H](Cc1ccccc1)NC(=O)[C@@H](NC(=O)CNC(=O)[C@H](CCC(N)=O)NC(=O)C(C)(C)NC(=O)[C@@H](N)Cc1c[nH]cn1)[C@@H](C)O)[C@@H](C)O)C(C)C)C(C)C)C(=O)N[C@@H](CCC(=O)O)C(=O)N[C@@H](C)C(=O)NCC(=O)NCC(=O)O [Peptide 522]
